Reference: ChEMBL document CHEMBL1150177, “Antineoplastic agents, 178. Isolation and structure of lychnostatins 1 and 2 from the South American Lychnophora antillana” (1990)
Values after ≈ are worked out from the molar mass of the structure shown.

Test system: P388
Test: Cytotoxicity against mouse P388 cells
Assay type: functional
Settings: read-out: ED50 (the source's name)

Compound	EC50 [µg/mL]
C=C(C)C(=O)O[C@H]1C[C@@](C)(OC(C)=O)C(=O)CC[C@H](C)[C@H](O)[C@H]2OC(=O)C(=C)[C@@H]21 [LYCHNOSTATIN 1]	2 (≈ 4.9 µM)
C=C(C)C(=O)O[C@H]1C[C@@](C)(OC(C)=O)C(=O)CC[C@H](C)C[C@H]2OC(=O)C(=C)[C@H]12 [LYCHNOSTATIN 2]	0.19 (≈ 0.484 µM)
